The text below walks through data of article PMC11570312, “Development, optimization, and characterization of polymeric micelles to improve dasatinib oral bioavailability: Hep G2 cell cytotoxicity and in vivo pharmacokinetics for targeted liver cancer therapy” (Heliyon, 2024).

In one data set the test system is HepG2 liver cell lines. Kind of data set: In-vitro scratch assay. The note with it: HepG2, after 48 h of treatment. It counts as cell-based, human. From the text:
The aim of the in-vitro scratch test is to assess how effectively cancer cell growth is curbed.

The nature of the next data set: In vivo pharmacokinetics. The arrangement: species or system Male Wistar rats. The note with it: male, Wistar; for Cmax / Tmax: rat plasma. The procedure: Male Wistar rats, each weighing 200 ± 10 g, were obtained from the Experimental Animal Centre at NMIMS University. The study was conducted in accordance with the guidelines approved by the NMIMS University Animal Experimental Ethics Committee (protocol number SPTM/09/2023/IAEC/05). […] The total dose of DAS in two group was 5 mg/kg via intravenous. Blood samples (0.4 mL) were collected from the rats via intravenous injection at specified time intervals (0.5, 1, 2, 3, 4, 5, 6, 8, 10, and 12 h) and were immediately transferred into heparinized tubes. The samples were centrifuged at 12,000 rpm for 10 min to separate the plasma, which was then stored at −20 °C until analysis. The plasma samples were subsequently subjected to high-performance liquid chromatography (HPLC) to determine the concentration of dasatinib. The blood extraction process was conducted as follows: Initially, 15 μL of an internal standard solution (methanol, 10 μg/mL) was added to each tube containing 0.4 mL of blood, followed by vortexing for 1 min. Subsequently, 1 mL of acetonitrile was added, and the mixture was vortexed for an additional minute. The samples were then centrifuged at 12,000 rpm for 10 min. After centrifugation, the organic layer was carefully transferred to a sterile tube and evaporated under a gentle nitrogen stream. The dried extracts were reconstituted in 0.4 mL of a methanol/water solution (70/30, v/v) before undergoing high-performance liquid chromatography (HPLC) analysis. The pharmacokinetic parameters were calculated using the DAS 2.1.1 software (Shanghai, China).

A short description of data set [1]: MTT/SRB cytotoxicity assay. It counts as cell-based. The note with it: human, HepG2 cells; HepG2, after 48 h. As to the method: The MTT assay was performed to assess the cytotoxicity of the samples on the HepG2 cell line. Approximately 8000 cells per well were cultured in a 96-well plate for 24 h at 37 °C with 5 % CO2 in DMEM medium supplemented with 10 % FBS and 1 % antibiotic solution. The following day, cells were exposed to various dosages and concentrations ranging from 1 to 2500 μM, prepared using incomplete medium to achieve the desired concentrations. After a 24-h incubation period, 100 μL of 10 % trichloroacetic acid (TCA) was added to each well and incubated for 1 h. Then, the plate was washed with distilled water and allowed to dry at room temperature. MTT solution was added to each well at a final concentration of 0.04 % and was allowed to sit for 1 h. After an hour of incubation, the plate was air-dried at room temperature before being cleaned with 1 % (v/v) acetic acid to remove any remaining color. To solubilize the protein-bound dye, Tris base solution (pH = 10.5) was added to a well and shaken for 10 min on an orbital shaker. The protein-bound dye was then detected at 510 nm using an ELISA plate reader (iMark, Biorad, USA).
The cytotoxicity of the samples was evaluated using the HepG2 cell line, obtained from NCCS Pune, through the MTT assay. […] The results were measured at 540 nm and 660 nm using a Bio-Rad ELISA plate reader (USA). The IC50 value was calculated using GraphPad Prism 9 software. […]
On the technique in general: The SRB assay estimates cell density from bound dye.

Data set [2] deals with HepG2 cells. Kind of data set: ROS estimation with flow cytometry (DCFDA). It counts as cell-based, human. The note with it: HepG2, 24 h, Control 1 %. The procedure:
Cells were seeded into six-well plates at densities ranging from 5000 to 10,000 HepG2 cells per well, using 1 mL of DMEM media supplemented with 10 % FBS and 1 % antibiotic solution. The plates were then incubated at 37 °C with 5 % CO2 for 24 h. Prior to treatment, the old culture medium was replaced with fresh medium, designating untreated cells as controls. Following the protocol by Gupta et al. cells were treated with various agents and further incubated for 24 h. After incubation, the medium was removed, and cells were detached using trypsin-EDTA, transferred to 1.5 mL tubes, and washed with 500 μl of cold PBS. The cell pellet was resuspended in 100 μl of PBS containing 2 μM DCFDA, and samples were incubated for 1 h before analysis using a BD FACS Calibur flow cytometer (USA). Data were processed using version 2.5.1 of the Flowing software program.

Data set [3] has as its system HepG2 cells. Kind of data set: Cellular uptake (fluorescence microscopy, flow cytometry). It counts as cell-based, human. The note with it: HepG2, 50 and 100 μg/mL DAS, 1 and 4 h. As to the method:
The cellular uptake of DAS polymeric micelles was evaluated by examining the uptake of DAS by HepG2, hepatocellular carcinoma, and murine melanoma cells after exposure to free DAS and DAS-PMs micelles. Cells were visualized under a fluorescence microscope, and the DAS fluorescence intensity in treated cells was measured using flow cytometry. Fluorescent micrographs depicted HepG2 cells that had been treated with free DAS and DAS-PMs for durations of 0, 1, and 4 h. […] This rise was in comparison to the control group. However, DAS-PMs may quickly accumulate in HepG2 cells, as indicated by the vivid green fluorescence—even just 1 h after. When cells were treated with DAS-PMs for 4 h, the fluorescence intensity increased much more than after 1 h. At the 1- and 4-h time points, the fluorescence intensity in cells treated with 100 μg/mL of DAS in DAS-PMs was considerably higher than that in cells treated with 50 μg/mL of DAS. The dose- and time-dependent rise in fluorescence intensity was quantitatively evaluated using flow cytometry on HepG2 cell lines, as illustrated in Fig. 12.
For orientation: Flow cytometry measures light scatter and fluorescence of single cells or particles in a stream.

For the next data set, the system named is HepG2 cell lines. In words: Cellular apoptosis with flow cytometry (Annexin V-FITC/PI). It counts as cell-based, human. The note with it: HepG2, IC50 dose. As to the method: HepG2 cell lines, obtained from NCCS Pune, were cultured and treated with the compound's IC-50 dosage. Post-treatment, the cells were divided into five groups: unstained cells, control group, annexin-only, PI-only, and treatment. The cells were then resuspended in 1X binding buffer at a concentration of 1 × 10^6 cells/mL. FITC and PI from Annexin V were added to the appropriately labeled tubes. According to Zhan et al., 1X binding buffer was added to each tube, and they were incubated for 15 min at room temperature. The samples were analyzed using a BD FACS Lyric™ flow cytometer within an hour.

The test system of data set [4] is HepG2 cells. Kind of data set: Cell cycle analysis with flow cytometry. It counts as cell-based, human. The note with it: HepG2, 24 h at IC50. As to the method: Specimens were placed on cells and incubated for 24 h. The cells that were not subjected to any treatment were the control cells. After the set incubation duration, trypsin was applied to detach the cells. Subsequently, the cells were gathered in a 1.5-mL vial and rinsed with 500 μL of chilled PBS [39]. A suspension of approximately 10^6 cells was prepared by gently vortexing 100 μL of PBS, resulting in a monodispersed cell suspension with minimal aggregation. The cells were then fixed by adding this solution to centrifuge tubes containing 900 μL of 70 % ethanol on ice, followed by incubation at 4 °C for at least 2 h. Cells can be stored in 70 % ethanol at 4 °C for several weeks. According to Sun et al. after centrifugation post-fixation, the cell pellet was resuspended in 500 μL of Propidium Iodide (PI) staining solution (0.1 % (v/v) Triton X-100, 10 μg/mL PI, and 100 μg/mL DNase-free RNaseA in PBS). The mixture was incubated in the dark for 30 min at room temperature or 10 min at 37 °C. Finally, samples were analyzed using a flow cytometer.

A short description of data set [5]: In vitro release of dasatinib (dialysis bag). It counts as physicochemical. The note with it: 12 h, pH 7.4, 37 °C. The procedure:
To imitate the journey of polymeric micelles through the gastrointestinal tract, an in vitro drug release test was conducted. To simulate drug release from polymeric micelles, a release test was conducted using a phosphate buffer solution at pH 7.4 over 12 h, starting at the 0.5-h mark. The pH of human blood and most bodily tissues is roughly 7.4. Performing the release research at this pH allows us to forecast how dasatinib will behave once taken into the bloodstream and dispersed throughout the body. […] This information aids in evaluating how much of the drug can reach the systemic circulation for therapeutic activity. Each test was performed in a medium containing 0.5 % w/v Tween 20 to maintain sink conditions. A dialysis bag containing 1 mL of a freshly prepared dispersion of dasatinib-loaded micelles was sealed with clips and placed into a glass container filled with 90 mL of […]. This setup was incubated in a water bath set at 37 °C with agitation at 150 rotations per minute. At specified time intervals ([…]), 5 mL samples of the release medium were withdrawn and replaced with fresh medium to maintain volume consistency. The amount of drug released was measured by analyzing the UV absorbance of the samples at 323 nm. A standard curve for […] in each medium was used for the quantification. […]

Setting [6] is: plasma, rat, 5 mg/kg via intravenous.

For `Cc1nc(Nc2ncc(C(=O)Nc3c(C)cccc3Cl)s2)cc(N2CCN(CCO)CC2)n1` [DAS, dasatinib], the “cell migration (scratch wound)” value with HepG2 liver cell lines is “curbed cell migration”. For the same molecule, in the data set “In vivo pharmacokinetics” (intravenous, 5 mg/kg), the Cmax (in general, the maximum level reached in the sampled fluid or tissue) was determined as 12330 ± 60 ng/mL and the Tmax (commonly the time from dosing to the highest level) was 2 h. In addition, in the data set “In vivo pharmacokinetics” (setting [6]), the MRT – broadly, the average time that molecules of a dose stay in the body – is 3.3 h and the half-life (commonly how long it takes for the measured level to halve) is 4.08 ± 0.786 h. Moreover, in “In vivo pharmacokinetics” (5 mg/kg via intravenous), the Cmax was determined as 12300 ± 2310 ng/mL and the Tmax was 2 h. Moreover, the viability (commonly the share of living cells, or the viability signal relative to a control) at 48 h in data set [1] amounted to 12.2 ± 0.63%. In addition, in the data set on HepG2 cells [2], the “ROS, MFI-positive cells” value is 3.09%. In addition, the “fluorescence intensity (cellular uptake)” value in the data set on HepG2 cells [3] is listed as “slight rise in fluorescence intensity”. For the same molecule, in the data set with HepG2 cell lines (control 3.38 %), the early apoptotic cells amounted to 0.6%. The molecule further showed a necrotic cells in the data set with HepG2 cell lines (control 13.28 %) of 18.1%. Besides, in the data set on HepG2 cell lines (control 19.56 %), the late apoptotic cells came to 72.4%. Also, the “percentage of cells in G2 phase” value in the data set with HepG2 cells [4] (control 18.14 %) was 11.94%. In addition, the “percentage of cells in S phase” value with HepG2 cells [4] (control 20.04 %) is reported as 14.22%. Further, in the data set on HepG2 cells [4] (control 58.18 %), the “percentage of cells in G1 phase” value is 67.14%. Also, the drug released in data set [5] is reported as 40%.
